Reference: paper PMC13224100, “Esterase-Responsive Mitochondria-Targeted Hydropersulfide Donors Mitigate Doxorubicin Cardiotoxicity While Preserving Anticancer Activity” (Angewandte Chemie (International ed. in English), 2025)

Test system: HepG2 cells
Assay: Cytotoxicity of RSSH donors, CCK-8 assay
Type: cell-based
Conditions: up to 200 μM, 24 h
Protocol: We next evaluated the effects of RSSH donors on DOX activity in three representative cancer cell lines: triple-negative breast cancer MDA-MB-468, ER-positive breast cancer MCF-7, and hepatocellular carcinoma HepG2.
Figure S22. Measurement of Cys-SH and GSH in cytoplasm (A, B) and mitochondria (C, D) of H9c2 cells treated with APT-1 (200 µM) APT-1-TPP (200 µM), or vehicle (0.01% DMSO in serum-free medium) for 2 h. Data are mean ± SEM (n = 3); *p ≤ 0.05, **p ≤ 0.01.
Cytotoxicity Assessment of Hydropersulfide Precursors in H9c2 and HepG2 cells Cell viability was measured using the Cell Counting Kit-8 (CCK-8, Dojindo).[7] […] The plates were then incubated for 1-2 h before measuring absorbance at 450 nm using a plate reader […]
calculated as: % Viability = 100 × [Abs₄₅₀ (treated cells) / Abs₄₅₀ (vehicle control)]. […]
Figure S23. […] Results are expressed as mean ± SEM, n≥3; *P<0.05, **P<0.01, ***P<0.001, ****P<0.0001. […]
Cytoprotective studies were performed as previously described.[8] […] The plates were then incubated for 1-2 h before measuring absorbance at […]
The relative % cell viability was calculated as 100 times the ratio of Abs450 (RSSH donor + DOX-exposed) to Abs450 (vehicle, non-DOX-exposed). […]
Basal sulfane sulfur levels were quantified using the fluorescent probe Sulfobiotics SSP4 (Dojindo, SB10) as previously described.[5] […]

| Compound | cytotoxicity of donor alone |
| --- | --- |
| COC(=O)C(NC(C)=O)C(C)(C)SSC(=O)N(C)CCOC(C)=O (centres unmarked) [APT-1] | non-toxic |
| CC(=O)NC(C(=O)N(C)CCC[P+](c1ccccc1)(c1ccccc1)c1ccccc1)C(C)(C)SSC(=O)N(C)CCOC(C)=O (centres unmarked) [APT-1-TPP] | non-toxic |
